According to ChEMBL document CHEMBL5715954, “Silencing c-Myc translation as a therapeutic strategy through targeting PI3Kδ and CK1ε in hematological malignancies” (Blood, 2017):

Experiments:
Set-up in all cases: scale not given: the % may be the effect or the level left
[1] = molecular target: Tyrosine-protein kinase ABL2 (Homo sapiens) (UniProt P42684); assay: Inhibition of human ABL2 assessed as enzyme activity at 1 uM using EAIYAAPFAKKK as substrate preincubated for 20 mins followed by [gamma-33P]-ATP addition and measured after 120 mins by radiometric Hot-SpotSM Kinase assay relative to control
Sequence of Tyrosine-protein kinase ABL2 (Homo sapiens) (P42684 whole entry): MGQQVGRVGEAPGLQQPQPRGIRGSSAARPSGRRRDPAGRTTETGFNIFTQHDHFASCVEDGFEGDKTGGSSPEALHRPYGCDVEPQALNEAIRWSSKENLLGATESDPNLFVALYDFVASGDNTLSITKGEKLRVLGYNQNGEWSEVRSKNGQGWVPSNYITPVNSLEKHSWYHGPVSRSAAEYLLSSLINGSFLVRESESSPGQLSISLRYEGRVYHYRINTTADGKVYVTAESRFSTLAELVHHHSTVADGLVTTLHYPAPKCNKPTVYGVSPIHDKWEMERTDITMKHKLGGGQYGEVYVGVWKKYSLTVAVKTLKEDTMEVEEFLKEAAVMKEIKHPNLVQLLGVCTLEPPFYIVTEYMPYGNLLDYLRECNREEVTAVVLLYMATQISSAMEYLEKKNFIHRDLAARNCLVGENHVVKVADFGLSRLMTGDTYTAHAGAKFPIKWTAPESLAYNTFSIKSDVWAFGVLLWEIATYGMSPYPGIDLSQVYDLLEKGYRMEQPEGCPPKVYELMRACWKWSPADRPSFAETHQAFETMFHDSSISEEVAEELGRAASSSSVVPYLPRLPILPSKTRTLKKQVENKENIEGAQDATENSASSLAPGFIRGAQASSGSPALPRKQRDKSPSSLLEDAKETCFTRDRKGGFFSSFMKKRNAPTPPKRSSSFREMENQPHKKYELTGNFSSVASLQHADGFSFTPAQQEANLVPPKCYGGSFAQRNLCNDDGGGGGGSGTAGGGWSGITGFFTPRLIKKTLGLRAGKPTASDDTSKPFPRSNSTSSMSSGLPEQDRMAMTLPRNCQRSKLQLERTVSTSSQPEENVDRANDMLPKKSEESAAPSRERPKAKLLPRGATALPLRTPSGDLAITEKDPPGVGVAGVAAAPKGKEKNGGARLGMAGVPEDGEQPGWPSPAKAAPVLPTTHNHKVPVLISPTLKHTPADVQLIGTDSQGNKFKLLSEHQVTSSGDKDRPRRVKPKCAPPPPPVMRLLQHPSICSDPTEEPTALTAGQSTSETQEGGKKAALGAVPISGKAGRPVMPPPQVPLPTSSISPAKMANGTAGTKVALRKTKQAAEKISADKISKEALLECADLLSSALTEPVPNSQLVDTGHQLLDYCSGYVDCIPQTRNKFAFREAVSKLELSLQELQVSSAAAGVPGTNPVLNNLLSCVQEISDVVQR

[2] = molecular target: RAC-beta serine/threonine-protein kinase (Homo sapiens) (UniProt P31751); assay: Inhibition of human AKT2 assessed as enzyme activity at 1 uM using KGSGSGRPRTSSFAEG as substrate preincubated for 20 mins followed by [gamma-33P]-ATP addition and measured after 120 mins by radiometric Hot-SpotSM Kinase assay relative to control
[3] = molecular target: T1, Activin receptor type-1 (Homo sapiens) (UniProt Q04771); assay: Inhibition of human ALK2 assessed as enzyme activity at 1 uM using casein as substrate preincubated for 20 mins followed by [gamma-33P]-ATP addition and measured after 120 mins by radiometric Hot-SpotSM Kinase assay relative to control
T1 sequence (whole entry): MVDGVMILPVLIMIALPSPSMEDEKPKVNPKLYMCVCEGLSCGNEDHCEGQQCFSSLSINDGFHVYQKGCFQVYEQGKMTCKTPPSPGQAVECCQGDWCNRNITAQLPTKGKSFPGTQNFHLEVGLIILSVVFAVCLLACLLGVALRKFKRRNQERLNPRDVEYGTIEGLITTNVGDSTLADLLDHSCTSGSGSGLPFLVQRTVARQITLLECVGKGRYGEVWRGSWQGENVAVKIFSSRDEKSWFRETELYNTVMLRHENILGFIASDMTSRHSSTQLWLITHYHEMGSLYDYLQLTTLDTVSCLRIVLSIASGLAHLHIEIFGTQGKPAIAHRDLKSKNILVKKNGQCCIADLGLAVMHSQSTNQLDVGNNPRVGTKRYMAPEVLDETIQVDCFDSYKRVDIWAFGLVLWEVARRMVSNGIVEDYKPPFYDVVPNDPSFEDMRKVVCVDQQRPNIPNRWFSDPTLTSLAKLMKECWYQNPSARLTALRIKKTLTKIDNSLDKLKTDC

[4] = molecular target: T2, Rhodopsin kinase GRK1 (Homo sapiens) (UniProt Q15835); assay: Inhibition of human GRK1 assessed as enzyme activity at 1 uM using casein as substrate preincubated for 20 mins followed by [gamma-33P]-ATP addition and measured after 120 mins by radiometric Hot-SpotSM Kinase assay relative to control
T2 sequence (whole entry): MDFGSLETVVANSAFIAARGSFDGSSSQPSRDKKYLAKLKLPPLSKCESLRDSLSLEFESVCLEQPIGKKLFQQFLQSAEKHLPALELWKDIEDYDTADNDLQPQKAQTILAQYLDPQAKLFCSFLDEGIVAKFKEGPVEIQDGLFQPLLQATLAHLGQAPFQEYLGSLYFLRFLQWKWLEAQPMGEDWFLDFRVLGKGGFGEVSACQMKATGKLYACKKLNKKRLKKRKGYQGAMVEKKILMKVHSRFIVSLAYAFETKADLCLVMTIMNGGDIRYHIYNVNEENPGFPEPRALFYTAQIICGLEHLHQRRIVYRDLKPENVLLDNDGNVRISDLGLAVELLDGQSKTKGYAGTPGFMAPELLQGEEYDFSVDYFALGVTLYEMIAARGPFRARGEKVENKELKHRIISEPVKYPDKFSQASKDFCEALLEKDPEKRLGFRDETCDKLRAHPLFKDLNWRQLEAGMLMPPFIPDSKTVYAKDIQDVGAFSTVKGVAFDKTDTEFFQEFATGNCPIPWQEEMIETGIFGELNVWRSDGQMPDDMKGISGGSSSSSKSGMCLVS

[5] = molecular target: Tyrosine-protein kinase JAK1 (Homo sapiens) (UniProt P23458); assay: Inhibition of human JAK1 assessed as enzyme activity at 1 uM using poly[Glu:Tyr] (4:1) as substrate preincubated for 20 mins followed by [gamma-33P]-ATP addition and measured after 120 mins by radiometric Hot-SpotSM Kinase assay relative to control
Sequence of Tyrosine-protein kinase JAK1 (Homo sapiens) (P23458 whole entry): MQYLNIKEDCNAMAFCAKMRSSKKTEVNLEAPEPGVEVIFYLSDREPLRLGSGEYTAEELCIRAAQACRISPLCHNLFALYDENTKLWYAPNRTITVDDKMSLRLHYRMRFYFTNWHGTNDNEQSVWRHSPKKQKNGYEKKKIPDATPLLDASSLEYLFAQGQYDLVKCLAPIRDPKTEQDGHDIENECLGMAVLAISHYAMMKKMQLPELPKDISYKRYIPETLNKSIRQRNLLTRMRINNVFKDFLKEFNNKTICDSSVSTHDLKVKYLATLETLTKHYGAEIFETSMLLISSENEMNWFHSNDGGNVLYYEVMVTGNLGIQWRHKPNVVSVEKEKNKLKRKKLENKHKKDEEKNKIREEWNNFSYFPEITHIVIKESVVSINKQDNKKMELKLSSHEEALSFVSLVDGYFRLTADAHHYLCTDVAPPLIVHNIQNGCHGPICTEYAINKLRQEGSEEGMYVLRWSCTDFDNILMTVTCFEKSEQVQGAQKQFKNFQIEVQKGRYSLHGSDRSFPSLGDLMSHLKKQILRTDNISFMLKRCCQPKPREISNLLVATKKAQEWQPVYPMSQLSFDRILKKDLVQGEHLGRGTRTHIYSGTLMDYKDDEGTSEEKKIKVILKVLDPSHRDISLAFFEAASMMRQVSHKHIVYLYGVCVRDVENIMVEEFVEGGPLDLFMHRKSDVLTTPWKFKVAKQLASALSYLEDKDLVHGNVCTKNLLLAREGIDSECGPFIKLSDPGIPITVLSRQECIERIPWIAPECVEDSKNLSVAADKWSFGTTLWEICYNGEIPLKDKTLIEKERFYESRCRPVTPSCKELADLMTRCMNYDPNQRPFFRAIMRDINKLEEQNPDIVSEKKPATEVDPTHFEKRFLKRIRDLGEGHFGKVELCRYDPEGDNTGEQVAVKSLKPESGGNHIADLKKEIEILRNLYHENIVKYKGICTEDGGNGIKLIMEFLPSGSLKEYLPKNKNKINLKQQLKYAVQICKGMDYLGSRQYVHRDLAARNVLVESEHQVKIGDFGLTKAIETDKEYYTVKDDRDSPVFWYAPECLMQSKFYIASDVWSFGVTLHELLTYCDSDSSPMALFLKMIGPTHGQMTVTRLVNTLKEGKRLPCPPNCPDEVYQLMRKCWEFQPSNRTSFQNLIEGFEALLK

[6] = molecular target: T3, Serine/threonine-protein kinase D2 (Homo sapiens) (UniProt Q9BZL6); assay: Inhibition of human PKD2 assessed as enzyme activity at 1 uM using KKLNRTLSVA as substrate preincubated for 20 mins followed by [gamma-33P]-ATP addition and measured after 120 mins by radiometric Hot-SpotSM Kinase assay relative to control
T3 sequence (whole entry): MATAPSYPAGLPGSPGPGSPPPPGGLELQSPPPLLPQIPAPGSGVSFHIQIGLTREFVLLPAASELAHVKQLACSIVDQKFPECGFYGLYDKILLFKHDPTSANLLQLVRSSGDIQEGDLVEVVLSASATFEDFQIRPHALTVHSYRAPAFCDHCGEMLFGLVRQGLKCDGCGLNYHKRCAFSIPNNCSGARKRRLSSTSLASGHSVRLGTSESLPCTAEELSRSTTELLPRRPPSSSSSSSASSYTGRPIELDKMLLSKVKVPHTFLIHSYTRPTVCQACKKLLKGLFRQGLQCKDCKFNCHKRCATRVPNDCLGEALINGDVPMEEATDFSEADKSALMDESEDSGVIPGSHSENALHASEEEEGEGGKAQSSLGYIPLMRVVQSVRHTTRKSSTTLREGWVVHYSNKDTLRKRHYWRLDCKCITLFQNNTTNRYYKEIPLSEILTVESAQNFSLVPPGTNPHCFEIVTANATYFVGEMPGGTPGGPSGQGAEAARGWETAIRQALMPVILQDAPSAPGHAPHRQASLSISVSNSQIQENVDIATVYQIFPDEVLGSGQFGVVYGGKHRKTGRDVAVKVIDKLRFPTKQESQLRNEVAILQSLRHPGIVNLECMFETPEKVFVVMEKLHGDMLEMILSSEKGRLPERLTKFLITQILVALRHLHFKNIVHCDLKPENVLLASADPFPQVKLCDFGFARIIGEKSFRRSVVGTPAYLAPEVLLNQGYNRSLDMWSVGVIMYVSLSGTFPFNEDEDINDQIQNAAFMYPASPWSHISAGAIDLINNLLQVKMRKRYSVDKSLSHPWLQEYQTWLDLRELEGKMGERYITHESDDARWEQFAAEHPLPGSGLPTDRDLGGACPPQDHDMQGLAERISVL

[7] = molecular target: Proto-oncogene tyrosine-protein kinase ROS (Homo sapiens) (UniProt P08922); assay: Inhibition of human ROS assessed as enzyme activity at 1 uM using KKKSPGEYVNIEFG as substrate preincubated for 20 mins followed by [gamma-33P]-ATP addition and measured after 120 mins by radiometric Hot-SpotSM Kinase assay relative to control
Sequence of Proto-oncogene tyrosine-protein kinase ROS (Homo sapiens) (P08922 whole entry): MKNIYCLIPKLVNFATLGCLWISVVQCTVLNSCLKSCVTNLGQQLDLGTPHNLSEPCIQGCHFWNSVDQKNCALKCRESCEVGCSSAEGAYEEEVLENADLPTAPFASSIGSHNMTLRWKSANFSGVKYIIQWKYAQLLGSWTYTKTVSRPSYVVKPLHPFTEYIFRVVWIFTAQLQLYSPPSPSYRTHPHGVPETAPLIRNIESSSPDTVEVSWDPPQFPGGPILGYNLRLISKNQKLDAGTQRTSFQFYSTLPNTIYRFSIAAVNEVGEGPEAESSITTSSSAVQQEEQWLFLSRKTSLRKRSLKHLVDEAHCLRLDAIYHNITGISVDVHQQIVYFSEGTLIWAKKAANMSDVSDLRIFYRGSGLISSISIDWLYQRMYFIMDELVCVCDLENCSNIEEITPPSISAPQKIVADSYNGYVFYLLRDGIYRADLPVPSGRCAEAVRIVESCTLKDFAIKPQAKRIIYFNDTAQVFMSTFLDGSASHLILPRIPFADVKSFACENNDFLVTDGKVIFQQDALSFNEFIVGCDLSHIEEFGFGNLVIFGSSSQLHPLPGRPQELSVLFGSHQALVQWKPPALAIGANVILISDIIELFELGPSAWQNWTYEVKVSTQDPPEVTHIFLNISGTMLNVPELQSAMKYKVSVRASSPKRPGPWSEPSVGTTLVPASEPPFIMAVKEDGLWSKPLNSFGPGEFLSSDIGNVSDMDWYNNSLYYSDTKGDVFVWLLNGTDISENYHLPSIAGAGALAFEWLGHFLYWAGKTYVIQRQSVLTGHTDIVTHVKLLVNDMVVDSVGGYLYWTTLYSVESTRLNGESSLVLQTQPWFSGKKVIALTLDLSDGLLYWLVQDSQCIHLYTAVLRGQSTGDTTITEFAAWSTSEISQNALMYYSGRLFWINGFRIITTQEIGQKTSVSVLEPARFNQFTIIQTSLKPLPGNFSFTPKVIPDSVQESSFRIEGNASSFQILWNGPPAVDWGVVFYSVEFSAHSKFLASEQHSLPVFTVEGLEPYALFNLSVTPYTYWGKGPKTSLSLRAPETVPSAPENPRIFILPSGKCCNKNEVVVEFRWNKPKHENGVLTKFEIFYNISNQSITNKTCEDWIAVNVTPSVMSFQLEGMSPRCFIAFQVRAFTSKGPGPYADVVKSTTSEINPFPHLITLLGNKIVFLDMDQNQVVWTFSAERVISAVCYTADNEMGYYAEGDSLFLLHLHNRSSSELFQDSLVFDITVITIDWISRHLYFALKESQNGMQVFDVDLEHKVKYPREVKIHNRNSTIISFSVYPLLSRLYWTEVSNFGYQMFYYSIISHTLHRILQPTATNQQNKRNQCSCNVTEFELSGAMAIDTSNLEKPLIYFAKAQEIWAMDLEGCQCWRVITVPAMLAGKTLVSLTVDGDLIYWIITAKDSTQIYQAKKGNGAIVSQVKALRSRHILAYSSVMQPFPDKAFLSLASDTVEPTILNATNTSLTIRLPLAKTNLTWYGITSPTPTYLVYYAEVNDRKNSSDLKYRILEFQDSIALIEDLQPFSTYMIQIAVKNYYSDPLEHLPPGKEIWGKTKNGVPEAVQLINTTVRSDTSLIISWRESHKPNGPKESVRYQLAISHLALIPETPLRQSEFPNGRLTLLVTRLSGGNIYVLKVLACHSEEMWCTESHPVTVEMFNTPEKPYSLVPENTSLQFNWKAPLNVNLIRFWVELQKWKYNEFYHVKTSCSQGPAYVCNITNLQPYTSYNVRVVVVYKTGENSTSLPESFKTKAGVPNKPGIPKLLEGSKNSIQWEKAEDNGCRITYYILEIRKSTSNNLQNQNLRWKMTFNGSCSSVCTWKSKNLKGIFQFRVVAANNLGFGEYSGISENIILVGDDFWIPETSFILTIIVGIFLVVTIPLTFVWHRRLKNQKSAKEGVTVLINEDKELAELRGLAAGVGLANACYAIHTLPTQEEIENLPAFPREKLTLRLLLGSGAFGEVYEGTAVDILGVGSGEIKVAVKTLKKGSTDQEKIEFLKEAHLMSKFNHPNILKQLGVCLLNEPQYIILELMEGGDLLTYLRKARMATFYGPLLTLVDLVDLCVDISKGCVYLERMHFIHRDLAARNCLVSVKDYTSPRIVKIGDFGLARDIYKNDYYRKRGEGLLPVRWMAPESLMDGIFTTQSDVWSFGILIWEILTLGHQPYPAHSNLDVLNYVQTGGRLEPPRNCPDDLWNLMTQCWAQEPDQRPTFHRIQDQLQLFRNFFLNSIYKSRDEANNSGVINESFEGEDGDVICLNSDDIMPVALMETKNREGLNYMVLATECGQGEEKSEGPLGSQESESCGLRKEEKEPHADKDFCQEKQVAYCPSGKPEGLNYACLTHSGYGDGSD

SMILES | Activity [1] | Activity [2] | Activity [3] | Activity [4] | Activity [5] | Activity [6] | Activity [7]
CC[C@H](Nc1ncnc2[nH]cnc12)c1nc2cccc(F)c2c(=O)n1-c1ccccc1 | 89.1% | 91.6% | 94% | 104% | 85.6% | 101% | 98%
C[C@H](Nc1ncnc2nc[nH]c12)c1cc2cccc(Cl)c2c(=O)n1-c1ccccc1 | 91.7% | 92% | 93.6% | 102% | 84.6% | 99.2% | 86.7%
CC(C)Oc1ccc(-c2nn([C@@H](C)c3oc4ccc(F)cc4c(=O)c3-c3cccc(F)c3)c3ncnc(N)c23)cc1F [UMBRALISIB] | 90.6% | 90.8% | 95.5% | 98.7% | 83.4% | 101% | 94.5%
